Assay results published in PubChem BioAssay AID2060896 (Molecular Pharmacology Branch, DTP, NCI, 2025).

Tested on: 941728-121-R-J1-PDC complex spheroid viability
Assay: Anticancer human tumor 941728-121-R-J1-PDC patient-derived lung adenocarcinoma cell line growth inhibition [RAS]
Conditions: for IC50: curve of first compound; for viability, T/C: stronger effect = lower value
In short: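 Tumour cells grown as complex spheroids with HUVEC endothelial cells and mesenchymal stem cells, treated with RAS pathway inhibitor combinations. Each agent spans half-log steps from near clinical Cmax, or 10 microM where Cmax is unknown.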

[1] = second compound 0.00316 µM, first compound 0.0316 µM
[2] = second compound 0.00316 µM, first compound 0.1 µM
[3] = second compound 0.00316 µM, first compound 0.316 µM
[4] = second compound 0.00316 µM, first compound 1 µM
[5] = second compound 0.00316 µM, first compound 3.16 µM
[6] = second compound 0.00316 µM, first compound 10 µM
[7] = second compound 0.01 µM, first compound 0.0316 µM
[8] = second compound 0.01 µM, first compound 0.1 µM
[9] = second compound 0.01 µM, first compound 0.316 µM
[10] = second compound 0.01 µM, first compound 1 µM
[11] = second compound 0.01 µM, first compound 3.16 µM
[12] = second compound 0.01 µM, first compound 10 µM
[13] = second compound 0.0316 µM, first compound 0.0316 µM
[14] = second compound 0.0316 µM, first compound 0.1 µM
[15] = second compound 0.0316 µM, first compound 0.316 µM
[16] = second compound 0.0316 µM, first compound 1 µM
[17] = second compound 0.0316 µM, first compound 3.16 µM
[18] = second compound 0.0316 µM, first compound 10 µM
[19] = second compound 0.1 µM, first compound 0.0316 µM
[20] = second compound 0.1 µM, first compound 0.1 µM
[21] = second compound 0.1 µM, first compound 0.316 µM
[22] = second compound 0.1 µM, first compound 1 µM
[23] = second compound 0.1 µM, first compound 3.16 µM
[24] = second compound 0.1 µM, first compound 10 µM
[25] = second compound 0.316 µM, first compound 0.0316 µM
[26] = second compound 0.316 µM, first compound 0.1 µM
[27] = second compound 0.316 µM, first compound 0.316 µM
[28] = second compound 0.316 µM, first compound 1 µM
[29] = second compound 0.316 µM, first compound 3.16 µM
[30] = second compound 0.316 µM, first compound 10 µM
[31] = second compound 1 µM, first compound 0.0316 µM
[32] = second compound 1 µM, first compound 0.1 µM
[33] = second compound 1 µM, first compound 0.316 µM
[34] = second compound 1 µM, first compound 1 µM
[35] = second compound 1 µM, first compound 3.16 µM
[36] = second compound 1 µM, first compound 10 µM
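Also: spheroids exposed to compounds for 7 days before readout.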
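For viability, T/C in this document: 100% = DMSO vehicle control viability.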

SMILES: Cc1nc(N2CCC3(CC2)COC(C)C3N)c(CO)nc1Sc1ccnc(N)c1Cl (centres undefined) + C=CC(=O)N1CCN(c2nc(OCC3CCCN3C)nc3c(F)c(-c4nc(N)cc(C)c4C(F)(F)F)c(Cl)cc23)C(C)C1
- IC50 (second compound 0.00316 µM): < 31.6 nM
- IC50 (second compound 0.01 µM): < 31.6 nM
- IC50 (second compound 0.0316 µM): < 31.6 nM
- IC50 (second compound 0.1 µM): < 31.6 nM
- IC50 (second compound 0.316 µM): < 31.6 nM
- IC50 (second compound 1 µM): < 31.6 nM
- viability, T/C [1]: 19%
- viability, T/C [2]: 17.5%
- viability, T/C [3]: 16.5%
- viability, T/C [4]: 17.4%
- viability, T/C [5]: 16.4%
- viability, T/C [6]: 17.3%
- viability, T/C [7]: 17.8%
- viability, T/C [8]: 17.4%
- viability, T/C [9]: 18.4%
- viability, T/C [10]: 20.9%
- viability, T/C [11]: 16.2%
- viability, T/C [12]: 16.3%
- viability, T/C [13]: 18.5%
- viability, T/C [14]: 18.3%
- viability, T/C [15]: 13.9%
- viability, T/C [16]: 15.6%
- viability, T/C [17]: 15.9%
- viability, T/C [18]: 16.9%
- viability, T/C [19]: 19%
- viability, T/C [20]: 16.7%
- viability, T/C [21]: 15.5%
- viability, T/C [22]: 17.6%
- viability, T/C [23]: 17.8%
- viability, T/C [24]: 14.9%
- viability, T/C [25]: 19.3%
- viability, T/C [26]: 28.2%
- viability, T/C [27]: 18.2%
- viability, T/C [28]: 16.4%
- viability, T/C [29]: 15.9%
- viability, T/C [30]: 15.9%
- viability, T/C [31]: 20.2%
- viability, T/C [32]: 18.2%
- viability, T/C [33]: 15.9%
- viability, T/C [34]: 16.1%
- viability, T/C [35]: 19.1%
- viability, T/C [36]: 18.1%

SMILES: NC1c2ccccc2OC12CCN(c1cnc3c(N4CCCc5ncccc54)n[nH]c3n1)CC2 (centres undefined) + C=CC(=O)N1CCN(c2nc(OCC3CCCN3C)nc3c(F)c(-c4nc(N)cc(C)c4C(F)(F)F)c(Cl)cc23)C(C)C1
- IC50 (second compound 0.00316 µM): < 31.6 nM
- IC50 (second compound 0.01 µM): < 31.6 nM
- IC50 (second compound 0.0316 µM): < 31.6 nM
- IC50 (second compound 0.1 µM): < 31.6 nM
- IC50 (second compound 0.316 µM): < 31.6 nM
- IC50 (second compound 1 µM): < 31.6 nM
- viability, T/C [1]: 15.4%
- viability, T/C [2]: 15.1%
- viability, T/C [3]: 15.6%
- viability, T/C [4]: 17%
- viability, T/C [5]: 16.8%
- viability, T/C [6]: 17.1%
- viability, T/C [7]: 18.8%
- viability, T/C [8]: 15.7%
- viability, T/C [9]: 16.2%
- viability, T/C [10]: 15.5%
- viability, T/C [11]: 17.1%
- viability, T/C [12]: 17.5%
- viability, T/C [13]: 16.4%
- viability, T/C [14]: 15.7%
- viability, T/C [15]: 15.8%
- viability, T/C [16]: 16.8%
- viability, T/C [17]: 15.9%
- viability, T/C [18]: 16.3%
- viability, T/C [19]: 15%
- viability, T/C [20]: 15.3%
- viability, T/C [21]: 16%
- viability, T/C [22]: 17.6%
- viability, T/C [23]: 17%
- viability, T/C [24]: 17%
- viability, T/C [25]: 16.3%
- viability, T/C [26]: 16.8%
- viability, T/C [27]: 17%
- viability, T/C [28]: 16.9%
- viability, T/C [29]: 15.7%
- viability, T/C [30]: 16%
- viability, T/C [31]: 16.1%
- viability, T/C [32]: 15.1%
- viability, T/C [33]: 16%
- viability, T/C [34]: 16.6%
- viability, T/C [35]: 17.6%
- viability, T/C [36]: 17.2%
